According to patent US20060167106A1, “Compounds acting at the centrosome” (priority 2004, published 2006):
Entries after “also recorded” stand apart in the source; their conditions may differ.

How the values were obtained:
26S proteasome [1] = experiment: Proteasome-sensor cells (HEK-293, GFP chimera), fluorescence imaging; format: cell-based; settings: for accumulation of the GFP-based proteasome substrate at the center of the colonies: Compound 1 500 nM 20-40 hours, Velcade 50 or 500 nM 20 hours; for accumulation of GFP-labeled proteasome-targeting chimera protein, periphery of colony relative to center: HEK-293 colony, 500 nM; for proteasome inhibition activity in cell-based assays (overall statement): live proteasome-sensor cells
From the text: Specifically, the proteasome-sensor cells are HEK-293 cells stably transfected with a vector (proteasome-sensor vector) that encodes naturally-occurring reef coral Zoanthus sp. green fluorescent protein (GFP) fused to a specific degradation motif that targets the fusion protein for removal by the 26S proteasome. The background fluorescence observed in normal cells with active proteasomes is low. When proteasomes are inhibited, the fluorescent protein quickly accumulates. […] Millennium Pharmaceuticals, Inc., Cambridge, Mass.). […] Velcade (Millennium Pharmaceuticals Inc.) was used as a positive control in this assay (at 5 nM, 50 nM, 500 nM or 5 μM). Velcade stock solution was prepared according to the manufacturer's instructions. GFP fluorescence of the cells was imaged at various time points using a standard filter for FITC with the Nikon TE300 microscope/digital imaging system described herein.

26S proteasome [2] = experiment: Proteasome-sensor cells, flow cytometry; format: cell-based
Procedure: The first measurement was determined by the increase of proteasome-sensor positive cells treated with Compound 1 or Velcade, as compared to DMSO, by using a cell line expressing the proteasome-sensor protein and flow cytometry analysis.
To measure the proteasome-inhibition effect of Compound 1, GFP fluorescence in the proteasome-sensor cells treated with Compound 1 and Velcade was measured using flow cytometry. […] Cells were harvested by treating the cells with 1×PBS for 5 minutes and pipetting the cells up and done 10 times. The cells were passed through a 100 μm-diameter filter before analyzing by FACS. A standard FITC filter was used for the FACS analysis. Quantitation of the proteasome-inhibitory effect of Compound 1 was determined by an increase in the percentage of GFP-positive cells, as compared to treatment with DMSO alone.
To further characterize the proteasome-inhibitory effect of Compound 1 in live cells, proteasome-sensor cells were treated with Compound 1 and the accumulation of the GFP-based proteasome substrate was measured by flow cytometry.

[3] = tested on: bovine microtubule-associated protein (MAP)-free tubulin; experiment: Tubulin Polymerization Assay (MAP-free tubulin); format: biochemical
Procedure: For in vitro tubulin polymerization assays, lyophilized bovine microtubule-associated protein (MAP)-free tubulin and PEM buffer (80 mM Na-PIPES (pH 6.9), 1 mM MgCl2, 1 mM EGTA) were purchased from Cytoskeleton (Denver, Colo.). MAP-free tubulin (1.5 mg/ml) was incubated with the test compounds, 0.5 μM Compound 1, 3 μM Taxol, 0.5 μM Compound 1+3 μM Taxol or 0.5 μM Compound 1+30 nM Taxol in PEM-0.3% DMSO. Absorbance at 340 nm was measured every minute for 60 min at 37° C. using a Perkin Elmer HTS 7000 spectrophotometer.

[4] = tested on: bovine brain microtubule-associated protein (MAP)-rich tubulin; experiment: MAP-Rich Tubulin Polymerization Assay; format: biochemical; settings: 0.5 μM Compound 1 alone or with 3 μM Taxol
Procedure: In vitro tubulin polymerization assays were repeated in the presence of microtubule-associated proteins (MAPs). Lyophilized bovine brain microtubule-associated protein (MAP)-rich tubulin and PEM buffer (80 mM Na-PIPES (pH 6.9), 1 mM MgCl2, 1 mM EGTA) were purchased from Cytoskeleton (Denver, Colo.). […] Absorbance at 340 nm was measured every minute for 60 minutes at 37° C. using a Perkin Elmer HTS 7000 spectrophotometer.

[5] = tested on: CRL-2261 (non-Hodgkin's lymphoma); experiment: Viability and cell growth of CRL-2261 cells; format: cell-based; settings: for Total cells (×10^6): CRL-2261, 36 hour treatment; for Total cells (×10^7): CRL-2261, 48 hour treatment
Procedure: (§1) The viability and cell growth of two lymphoma cell lines, CRL-2261 (non-Hodgkin's lymphoma) and U937 (histiocytic lymphoma), were assayed following treatment with Compound 1 for 36-48 hours. Viability of the cells was determined using a kit from Molecular Probes (Eugene, Oreg.) that labels live cells green (calcein AM) and dead cells red (ethidium homodimer) according to manufacturer's instructions. Fluorescence of calcein and ethidium homodimer in cells was imaged using standard filters for FITC and Texas Red, respectively, with the Nikon TE300 microscope/digital imaging system.

[6] = tested on: U937 (histiocytic lymphoma); experiment: Viability and cell growth of U937 cells; format: cell-based; settings: for Total cells (×10^6): U937, 36 hour treatment
Procedure: as §1

[7] = cited from earlier work

CN(NC(=O)CC(=O)NN(C)C(=S)c1ccccc1)C(=S)c1ccccc1 [Compound 1]
accumulation of the GFP-based proteasome substrate at the center of the colonies (26S proteasome [1]; FIG. 14): did not cause significant accumulation | accumulation of the GFP-based proteasome substrate at the periphery of the colonies (26S proteasome [1]; FIG. 14, Compound 1 500 nM, 20-40 hours): significant accumulation of the GFP-based proteasome substrate | accumulation of proteasome-sensor protein in cells (26S proteasome [1]; HEK-293, 1 nM, 20 hours): accumulation of proteasome-sensor protein in cells | accumulation of proteasome-sensor protein in cells (26S proteasome [1]; HEK-293, 5 nM, 20 hours): accumulation of proteasome-sensor protein in cells | accumulation of proteasome-sensor protein in cells (26S proteasome [1]; HEK-293, 10 nM, 20 hours): accumulation of proteasome-sensor protein in cells | accumulation of proteasome-sensor protein in cells (26S proteasome [1]; HEK-293, 50 nM, 20 hours): induced an increase of the GFP-based proteasome substrate in the cytoplasm in some scattered cells; also recorded: accumulation of proteasome-sensor protein in cells | accumulation of proteasome-sensor protein in cells (26S proteasome [1]; HEK-293, 100 nM, 20 hours): significantly increased the GFP signal in the cytosol; also recorded: accumulation of proteasome-sensor protein in cells | accumulation of proteasome-sensor protein in cells (26S proteasome [1]; HEK-293, 0.5 μM, 24 hours): accumulation of proteasome-sensor protein in cells | accumulation of proteasome-sensor protein in cells (26S proteasome [1]; HEK-293, 500 nM, 20 hours): accumulation of proteasome-sensor protein in cells | accumulation of GFP-labeled proteasome-targeting chimera protein, periphery of colony relative to center (26S proteasome [1]; 20 hours): stronger accumulation at the periphery of the colony | accumulation of GFP-labeled proteasome-targeting chimera protein, periphery of colony relative to center (26S proteasome [1]; 40 hours): stronger accumulation at the periphery of the colony | distribution of GFP-labeled proteasome-targeting chimera protein (26S proteasome [1]; HEK-293 proteasome-sensor cell, 5 μM, 24 hours): general, broad distribution of GFP-labeled proteasome-targeting chimera protein in both the cytosol and nucleus | proteasome inhibition activity in cell-based assays (overall statement) (26S proteasome [1]): weak-to-moderate proteasome inhibitory effect in live cells; also recorded: moderate proteasome inhibition activity; also recorded: weak/moderate proteasome inhibitor | proteasome inhibition activity in cell-based assays (overall statement) (26S proteasome [1]; listed as GMP-grade Compound 1): detectable level of proteasome inhibition activity | increase of the fluorescent positive cells (proteasome-sensor positive) compared to DMSO (26S proteasome [2]; 500 nM): 14.53% | increase of fluorescence (non-gated flow cytometry) (26S proteasome [2]; 500 nM, 20 hours): significant increase of fluorescence | increase in fluorescent cell population, lower than that of cells treated with Velcade (26S proteasome [2]; Compound 1 500 nM versus Velcade 100 nM, 20 hours): about 4 fold | effect on the kinetics of tubulin polymerization ([3]; 0.5 μM): no effect on the kinetics of tubulin polymerization | influence on the effect of Taxol on tubulin polymerization ([3]; 0.5 μM Compound 1 with 3 μM or 30 nM Taxol): did not influence the effect of either high dose (3 μM) or low dose (30 nM) of Taxol on tubulin polymerization | influence on MAP-enriched tubulin polymerization [4]: does not influence MAP-enriched tubulin polymerization | cell death / growth inhibition of CRL-2261 cells ([5]; 36-48 hours): significant cell death of CRL-2261 cells; also recorded: more significantly inhibited than growth of U937 cells | Total cells (×10^6) ([5]; 500 nM): 0.69 ×10^6 | Total cells (×10^6) ([5]; 5000 nM): 0.75 ×10^6 | Total cells (×10^7) ([5]; 0.5 nM): 1.32 ×10^7 | Total cells (×10^7) ([5]; 5 nM): 1.11 ×10^7 | Total cells (×10^7) ([5]; 50 nM): 0.26 ×10^7 | Total cells (×10^7) ([5]; 500 nM): 0.14 ×10^7 | Total cells (×10^7) ([5]; 5000 nM): 0.16 ×10^7 | cell death of U937 cells ([6]; 36 hours): less affected | Total cells (×10^6) ([6]; 500 nM): 2.13 ×10^6 | Total cells (×10^6) ([6]; 5000 nM): 2.40 ×10^6 | toxicity in vivo [7]: very low toxicity in vivo

CC(C)C[C@H](NC(=O)[C@H](Cc1ccccc1)NC(=O)c1cnccn1)B(O)O [Velcade]
accumulation of the GFP-based proteasome substrate at the center of the colonies (26S proteasome [1]; FIG. 14): greater accumulation of the GFP-based proteasome substrate in cells at the colony center than did Compound 1 | accumulation of proteasome-sensor protein in cells (26S proteasome [1]; HEK-293, 1 nM, 20 hours): accumulation of proteasome-sensor protein in cells | accumulation of proteasome-sensor protein in cells (26S proteasome [1]; HEK-293, 5 nM, 20 hours): significantly induced an increase of GFP signal; also recorded: accumulation of proteasome-sensor protein in cells | accumulation of proteasome-sensor protein in cells (26S proteasome [1]; HEK-293, 10 nM, 20 hours): accumulation of proteasome-sensor protein in cells | accumulation of proteasome-sensor protein in cells (26S proteasome [1]; HEK-293, 50 nM, 20 hours): accumulation of proteasome-sensor protein in cells | accumulation of proteasome-sensor protein in cells (26S proteasome [1]; HEK-293, 100 nM, 20 hours): accumulation of proteasome-sensor protein in cells | accumulation of proteasome-sensor protein in cells (26S proteasome [1]; HEK-293, 100 nM, 24 hours): accumulation of proteasome-sensor protein in cells | accumulation of proteasome-sensor protein in cells (26S proteasome [1]; HEK-293, 500 nM, 20 hours): accumulation of proteasome-sensor protein in cells | increase of the fluorescent positive cells (proteasome-sensor positive) compared to DMSO (26S proteasome [2]; 100 nM): 58.26% | increase of fluorescence (non-gated flow cytometry) (26S proteasome [2]; 100 nM, 20 hours): significant increase of fluorescence | toxicity in vivo [7]: greater toxicity
